Molecules are shown by their SMILES. Where two headings read alike, the source gives them in different places.

Experimental findings from patent publication US10464963B2, “Compounds from invasive Salvinias and methods of using the same” (STEPHEN F. AUSTIN STATE UNIVERSITY, priority 2013, dated 2019) are described below.

Data set [1] relates to human exocrine pancreatic cancer cells (BxPC-3). In words: Cell proliferation assay (CCK-8), BxPC-3. The settings on record: 12, 24, 48, 72 h, FIG. 3. The data set is classed as cell-based. Here is the method: (§1) CCK-8 (Dojindo Molecular, Maryland) was used to measure the proliferation response of salviniol (6) and montbretol (8) against human exocrine pancreatic cancer cell lines (PANC-1 and BxPC-3), according to the manufacturer's instructions. Cell were grown in growth medium plus 10% FBS and 5% antibiotics in 96-well plates and then were treated with various concentrations of test compounds and incubated for 12, 24, 48, and 72 h, respectively. The end of the incubation period, 10% CCK-8 solution was added to the wells. After 2 h incubation, the absorbance at 450 nm was measured. A calibration curve was prepared using the absorbance observed known numbers of viable cells.

Data set [2] relates to human prostate cancer (PC-3). In words: Cytotoxicity assay (WST-8), PC-3. Format: cell-based. The settings on record: Homo sapiens. How it is done:
(§2) PANC-1 and MRC-5 was cultured in complete growth medium according to the ATCC protocols. Cells were grown at 37° C. and 5% CO2 in humidified air.
(§3) Cytotoxicity of total extracts of S. molesta was tested against PANC-1, A549, PC-3, and MRC-5. Cytotoxicity of the fractions was determined using A549 cells, a human non-small lung cancer cell line. Fractions were tested at 25, 50, and 100 μg/mL. The isolated pure compounds were tested in each of the cultured human tumor and normal cell lines at various concentrations between 1 and 100 μM with three replications. Human tumor and normal cells were inoculated into 96 well microtiter plates in 90 μL at plating densities ranging from 5,000 to 40,000 cells/well (measured by Z2 Coulter Counter of Beckman) depending on the doubling time of individual cell lines. Cell growth and viability was measured by WST-8 (Water Soluble Tetrazolium) assays following a standard protocol (Cell Counting Kit-8, Dojindo Molecular, Maryland). The WST-8 assay measured the relative activity of mitochondrial reductase enzymes in viable cells. A control WST reading (T0) before treatment was measured, then cells were continuously exposed to isolates for 48 h. After WST added and incubated for 2 h, the amount of formazan was measured by using a microplate spectrophotometer (μQuant spectrophotometer, Bio-Tek Instruments, Inc., Vermont) at 450 nm. TC or TD represents the readings of the untreated control or with tested compounds. Percent cell-growth (G) and percent cell-growth inhibition (GI) was calculated as: G=(TD−T0/TC−T0)×100; GI=[1−(TD−T0/TC−T0)]×100 for which TD≥T0; and G=(TD−T0/T0)×100; GI=[1−(TD−T0/T0)]×100 for which TD≤T0. […] Cancer drug doxorubicin was used as the positive controls in the cell-based assays.
Background: Tetrazolium dyes change colour on reduction, which living cells bring about.

The test system of data set [3] is human exocrine pancreatic cancer (PANC-1). Kind of data set: Cytotoxicity assay (WST-8), PANC-1. Format: cell-based. The conditions noted are these: Homo sapiens. How it is done:
as §2, §3

Data set [4] deals with human exocrine pancreatic cancer (BxPC-3). Kind of data set: Cytotoxicity assay (WST-8), BxPC-3. The data set is classed as cell-based. The conditions noted are these: Homo sapiens.
In data set [5] the test system is human leukemia (HL-60). In words: Cytotoxicity assay (WST-8), HL-60. Format: cell-based. The conditions noted are these: Homo sapiens.
Data set [6] concerns human exocrine pancreatic cancer cells (PANC-1). Kind of data set: Cell proliferation assay (CCK-8), PANC-1. The conditions noted are these: 12, 24, 48, 72 h, FIG. 3. Format: cell-based. How it is done: as §1
Data set [7] relates to human non-small cell lung cancer (A549). Kind of data set: Cytotoxicity assay (WST-8), A549. Format: cell-based. The conditions noted are these: Homo sapiens. How it is done: as §2, §3
For data set [8], the system named is normal human lung fibroblasts cells (MRC-5). Kind of data set: Cytotoxicity assay (WST-8), MRC-5. Format: cell-based. How it is done: as §2, §3
Data set [9] is described as follows: Cytotoxicity assay (WST-8), MRC-5. The data set is classed as cell-based, human. The settings on record: human. Here is the method: as §2, §3
The subject of data set [10] is human breast cancer (MDA-MB-231). In words: cells. Format: cell-based. An excerpt: Human exocrine pancreatic cancer (PANC-1 and BxPC-3), non-small cell lung cancer (A549), prostate cancer (PC-3), breast cancer (MDA-MB-231), and leukemia (HL-60) were obtained from The University of Texas M. D. Anderson Cancer Center, Houston, Tex., and Normal human lung fibroblasts cells (MRC-5) was purchased from the American Type Culture Collection (ATCC). PC-3, A549 and HL-60 cells were maintained in RPMI 1640 medium supplemented with 10% (v/v) fetal bovine serum and antibiotics (1,000 units/mL penicillin-streptomycin solution, Hyclone). PANC-1 and MRC-5 was cultured in complete growth medium according to the ATCC protocols. Cells were grown at 37° C. and 5% CO2 in humidified air.
Cytotoxicity of total extracts of S. molesta was tested against PANC-1, A549, PC-3, and MRC-5. Cytotoxicity of the fractions was determined using A549 cells, a human non-small lung cancer cell line. Fractions were tested at 25, 50, and 100 μg/mL. The isolated pure compounds were tested in each of the cultured human tumor and normal cell lines at various concentrations between 1 and 100 μM with three replications. Human tumor and normal cells were inoculated into 96 well microtiter plates in 90 μL at plating densities ranging from 5,000 to 40,000 cells/well (measured by Z2 Coulter Counter of Beckman) depending on the doubling time of individual cell lines. Cell growth and viability was measured by WST-8 (Water Soluble Tetrazolium) assays following a standard protocol (Cell Counting Kit-8, Dojindo Molecular, Maryland). The WST-8 assay measured the relative activity of mitochondrial reductase enzymes in viable cells. A control WST reading (T0) before treatment was measured, then cells were continuously exposed to isolates for 48 h. After WST added and incubated for 2 h, the amount of formazan was measured by using a microplate spectrophotometer (μQuant spectrophotometer, Bio-Tek Instruments, Inc., Vermont) at 450 nm. TC or TD represents the readings of the untreated control or with tested compounds. Percent cell-growth (G) and percent cell-growth inhibition (GI) was calculated as: G=(TD−T0/TC−T0)×100; GI=[1−(TD−T0/TC−T0)]×100 for which TD≥T0; and G=(TD−T0/T0)×100; GI=[1−(TD−T0/T0)]×100 for which TD≤T0. To determine the inhibitory potency of active compounds (GI50, 50% cell-growth inhibition), tests were extended to additional concentrations (varying from 0.01 to 100 μM). Cancer drug doxorubicin was used as the positive controls in the cell-based assays.

The mark [11] stands for this setting: PANC-1, Table 1, read-out: Activity against human exocrine pancreatic tumor PANC-1 (GI50).
Setting [12] is: BXPC-3, Table 1, read-out: Activity against human exocrine pancreatic tumor BxPC-3 (GI50) (converted).
Setting [13] is: A549, Table 1, read-out: Activity against human non-small cell lung tumor A549 (GI50) (converted).
The mark [14] stands for this setting: 48 h, read-out: Cytotoxic activity (GI50) PC-3.
The mark [15] stands for this setting: PANC-1, 48 h, read-out: Cytotoxic activity (GI50) PANC-1.
[16] abbreviates: BXPC-3, 48 h, read-out: Cytotoxic activity (GI50) BxPC-3.
Setting [17] is: HL-60, 48 h, read-out: Cytotoxic activity (GI50) HL-60.
The mark [18] stands for this setting: A549, 48 h, read-out: Cytotoxic activity (GI50) A549.
[19] abbreviates: MDA-MB-231, 48 h, read-out: Cytotoxic activity (GI50) MDA-MB-231.
[20] abbreviates: MDA-MB-231, Table 1, read-out: Activity against human breast tumor MDA-MB-231 (GI50).

As usually defined, the GI50 is the concentration giving 50% growth inhibition. For the compound `CC(C)c1cc2c(cc1O)[C@@]1(C)CCCC(C)(C)C1=C(O)C2=O` [Compound 8, montbretol], the “Effect on proliferation of BxPC-3 cells (in words)” value in [1] is on record as “inhibit human pancreatic cancer cell proliferation in a dose-dependent manner”. In addition, the GI50 in [2] (Table 7, WST-8, 48 h exposure, mean ± S.D., read-out: Cytotoxic activity (GI50) PC-3) is 13.2 ± 2.03 µM; in data set [3] (setting [11]), 23.1 µM; in [3] (PANC-1, Table 7, WST-8, 48 h exposure, mean ± S.D., read-out: Cytotoxic activity (GI50) PANC-1) it was 23.1 ± 9.16 µM; in [4] (setting [12]), 25 µM; in [4] (BXPC-3, Table 7, WST-8, 48 h exposure, mean ± S.D., read-out: Cytotoxic activity (GI50) BxPC-3), 25 ± 13.2 µM; in data set [5] (HL-60, Table 7, WST-8, 48 h exposure, mean ± S.D., read-out: Cytotoxic activity (GI50) HL-60) it was 11.5 ± 3.13 µM. Further, the GI50 is 11.1 µM in [7] (setting [13]) and 11.1 ± 3.16 µM in [7] (A549, Table 7, WST-8, 48 h exposure, mean ± S.D., read-out: Cytotoxic activity (GI50) A549). Further, the “Effect on proliferation of PANC-1 cells (in words)” value in data set [6] is “inhibit human pancreatic cancer cell proliferation in a dose-dependent manner”. For the same compound, the “Toxicity against normal cell (in words)” value in data set [8] is given as “no toxic against normal cell”. In data set [9], this compound showed a GI50 at 48 h of 20 µM.

Regarding `CC(C)c1cc2c(cc1O)[C@@]1(C)CCCC(C)(C)[C@@H]1C[C@H]2CC1=CCC(O)(C(C)C)CC1` (stereo partly drawn) [Compound 6, 7-(menth-1-en-4-ol)-ferruginol], the “Effect on proliferation of BxPC-3 cells (in words)” value in data set [1] is on record as “inhibit human pancreatic cancer cell proliferation in a dose-dependent manner”. Further, the GI50 in [2] (setting [14]) was 54.2 ± 5.9 µM; in data set [2] (Table 1, read-out: Activity against human prostate tumor PC-3 (GI50) (converted)), 54.2 µM; in data set [3] (setting [15]), 60.4 ± 16.2 µM; in data set [3] (setting [11]) it was 60.4 µM; in data set [4] (setting [16]) it was 87.3 ± 24.5 µM; in [4] (setting [12]), 87.3 µM. Further, the GI50 in data set [5] (setting [17]) was 48.1 ± 10.9 µM; in [5] (HL-60, Table 1, read-out: Activity against human leukemia HL-60 (GI50) (converted)), 48.1 µM; in data set [7] (setting [18]), 62.9 ± 9.63 µM; in [7] (setting [13]) it was 62.9 µM; in data set [8] (human, 48 h), 58.4 ± 6.83 µM; in data set [10] (setting [19]) it was 75 ± 1.37 µM. Besides, the GI50 in [10] (setting [20]) came to 75 µM. In addition, the “Effect on proliferation of PANC-1 cells (in words)” value in data set [6] is recorded as “inhibit human pancreatic cancer cell proliferation in a dose-dependent manner”.

`CC(C)c1cc2c(c(O)c1O)[C@@]1(C)CCCC(C)(C)C1=C(O)C2=O` [Compound 7, 14-deoxycoleon U]: the GI50 in data set [2] (setting [14]) is 8.39 ± 0.86 µM; in data set [3] (setting [15]), 22.6 ± 4.18 µM; in data set [3] (setting [11]), 22.6 µM; in [4] (setting [16]), 37.3 ± 7.44 µM; in data set [4] (setting [12]) it was 37.3 µM; in data set [5] (setting [17]), 13.3 ± 5.62 µM. The GI50 in [7] (setting [18]) is 9.1 ± 2.47 µM; in data set [7] (setting [13]) it was 9.1 µM; in data set [10] (setting [19]), over 100 µM; in data set [10] (setting [20]), over 100 µM. In addition, in data set [8], the “Toxicity against normal cell (in words)” value is on record as “no toxic against normal cell”. In [9], this compound had a GI50 at 48 h of 24.8 µM.
